The target of one assay is BRM (Homo sapiens, UniProt P51531). Nature of the assay: ATPase catalytic activity assay (ADP-Glo), BRM. The note with it: 30 nM BRM, 400 μM ATP; for IC50: BRM ATPase: IC50 (uM).
The target of the next assay is BRG-1 (Homo sapiens, UniProt P51532). As to the kind of experiment: ATPase catalytic activity assay (ADP-Glo), BRG-1. The following applies: for Emax: 1 h, read-out: BRG1 Max % Inhibition, ADP-Glo, 30 nM BRG-1, 400 μM ATP. On the technique in general: In ADP-Glo the light output rises with the ADP produced.
BRG-1, sequence (P51532 whole entry): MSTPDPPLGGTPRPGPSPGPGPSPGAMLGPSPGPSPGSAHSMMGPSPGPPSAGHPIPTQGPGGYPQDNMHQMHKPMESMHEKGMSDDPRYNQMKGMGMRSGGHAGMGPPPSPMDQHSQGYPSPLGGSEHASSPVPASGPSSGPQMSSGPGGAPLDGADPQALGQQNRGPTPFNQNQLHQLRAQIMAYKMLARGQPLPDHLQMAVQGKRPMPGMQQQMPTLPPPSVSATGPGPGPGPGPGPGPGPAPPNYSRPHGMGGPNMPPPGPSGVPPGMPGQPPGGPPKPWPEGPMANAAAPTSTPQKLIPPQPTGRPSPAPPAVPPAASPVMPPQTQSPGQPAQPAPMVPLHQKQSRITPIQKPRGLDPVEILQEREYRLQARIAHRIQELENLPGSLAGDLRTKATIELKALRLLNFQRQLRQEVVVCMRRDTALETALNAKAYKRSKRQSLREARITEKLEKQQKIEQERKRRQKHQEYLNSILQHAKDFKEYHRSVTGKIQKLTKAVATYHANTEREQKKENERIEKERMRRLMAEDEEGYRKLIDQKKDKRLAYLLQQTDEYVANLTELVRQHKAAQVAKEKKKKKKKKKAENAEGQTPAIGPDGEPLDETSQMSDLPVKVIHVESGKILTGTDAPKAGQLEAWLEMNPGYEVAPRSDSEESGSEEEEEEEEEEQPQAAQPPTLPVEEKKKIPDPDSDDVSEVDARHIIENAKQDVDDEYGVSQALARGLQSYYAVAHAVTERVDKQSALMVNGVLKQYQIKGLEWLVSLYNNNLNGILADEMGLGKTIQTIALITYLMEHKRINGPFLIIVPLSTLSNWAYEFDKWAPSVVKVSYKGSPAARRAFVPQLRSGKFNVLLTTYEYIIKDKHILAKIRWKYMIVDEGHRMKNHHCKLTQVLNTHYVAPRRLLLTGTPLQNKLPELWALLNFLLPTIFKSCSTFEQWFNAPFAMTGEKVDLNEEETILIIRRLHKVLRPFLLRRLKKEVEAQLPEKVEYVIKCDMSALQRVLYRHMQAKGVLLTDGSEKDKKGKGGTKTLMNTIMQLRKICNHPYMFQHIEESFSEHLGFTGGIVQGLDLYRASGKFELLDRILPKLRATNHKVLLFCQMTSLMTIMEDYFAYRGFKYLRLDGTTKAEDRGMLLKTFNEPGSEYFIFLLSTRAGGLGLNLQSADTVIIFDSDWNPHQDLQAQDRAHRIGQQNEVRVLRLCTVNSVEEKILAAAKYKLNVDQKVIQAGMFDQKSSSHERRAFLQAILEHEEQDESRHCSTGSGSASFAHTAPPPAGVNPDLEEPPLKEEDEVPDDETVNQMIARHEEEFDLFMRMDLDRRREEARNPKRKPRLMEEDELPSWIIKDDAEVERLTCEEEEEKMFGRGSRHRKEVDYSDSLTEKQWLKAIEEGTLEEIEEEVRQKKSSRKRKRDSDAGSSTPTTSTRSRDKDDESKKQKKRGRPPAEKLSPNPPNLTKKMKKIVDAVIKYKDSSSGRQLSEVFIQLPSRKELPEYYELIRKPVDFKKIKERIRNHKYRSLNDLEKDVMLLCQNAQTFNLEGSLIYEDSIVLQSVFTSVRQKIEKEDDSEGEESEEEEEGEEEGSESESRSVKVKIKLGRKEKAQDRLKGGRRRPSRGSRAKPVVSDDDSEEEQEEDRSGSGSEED

This note sets out measurements from patent publication US12441726B2, “Compounds and uses thereof” (Foghorn Therapeutics Inc., priority 2020, dated 2025).

Each structure is given as a SMILES string.

BRM, sequence (P51531 whole entry): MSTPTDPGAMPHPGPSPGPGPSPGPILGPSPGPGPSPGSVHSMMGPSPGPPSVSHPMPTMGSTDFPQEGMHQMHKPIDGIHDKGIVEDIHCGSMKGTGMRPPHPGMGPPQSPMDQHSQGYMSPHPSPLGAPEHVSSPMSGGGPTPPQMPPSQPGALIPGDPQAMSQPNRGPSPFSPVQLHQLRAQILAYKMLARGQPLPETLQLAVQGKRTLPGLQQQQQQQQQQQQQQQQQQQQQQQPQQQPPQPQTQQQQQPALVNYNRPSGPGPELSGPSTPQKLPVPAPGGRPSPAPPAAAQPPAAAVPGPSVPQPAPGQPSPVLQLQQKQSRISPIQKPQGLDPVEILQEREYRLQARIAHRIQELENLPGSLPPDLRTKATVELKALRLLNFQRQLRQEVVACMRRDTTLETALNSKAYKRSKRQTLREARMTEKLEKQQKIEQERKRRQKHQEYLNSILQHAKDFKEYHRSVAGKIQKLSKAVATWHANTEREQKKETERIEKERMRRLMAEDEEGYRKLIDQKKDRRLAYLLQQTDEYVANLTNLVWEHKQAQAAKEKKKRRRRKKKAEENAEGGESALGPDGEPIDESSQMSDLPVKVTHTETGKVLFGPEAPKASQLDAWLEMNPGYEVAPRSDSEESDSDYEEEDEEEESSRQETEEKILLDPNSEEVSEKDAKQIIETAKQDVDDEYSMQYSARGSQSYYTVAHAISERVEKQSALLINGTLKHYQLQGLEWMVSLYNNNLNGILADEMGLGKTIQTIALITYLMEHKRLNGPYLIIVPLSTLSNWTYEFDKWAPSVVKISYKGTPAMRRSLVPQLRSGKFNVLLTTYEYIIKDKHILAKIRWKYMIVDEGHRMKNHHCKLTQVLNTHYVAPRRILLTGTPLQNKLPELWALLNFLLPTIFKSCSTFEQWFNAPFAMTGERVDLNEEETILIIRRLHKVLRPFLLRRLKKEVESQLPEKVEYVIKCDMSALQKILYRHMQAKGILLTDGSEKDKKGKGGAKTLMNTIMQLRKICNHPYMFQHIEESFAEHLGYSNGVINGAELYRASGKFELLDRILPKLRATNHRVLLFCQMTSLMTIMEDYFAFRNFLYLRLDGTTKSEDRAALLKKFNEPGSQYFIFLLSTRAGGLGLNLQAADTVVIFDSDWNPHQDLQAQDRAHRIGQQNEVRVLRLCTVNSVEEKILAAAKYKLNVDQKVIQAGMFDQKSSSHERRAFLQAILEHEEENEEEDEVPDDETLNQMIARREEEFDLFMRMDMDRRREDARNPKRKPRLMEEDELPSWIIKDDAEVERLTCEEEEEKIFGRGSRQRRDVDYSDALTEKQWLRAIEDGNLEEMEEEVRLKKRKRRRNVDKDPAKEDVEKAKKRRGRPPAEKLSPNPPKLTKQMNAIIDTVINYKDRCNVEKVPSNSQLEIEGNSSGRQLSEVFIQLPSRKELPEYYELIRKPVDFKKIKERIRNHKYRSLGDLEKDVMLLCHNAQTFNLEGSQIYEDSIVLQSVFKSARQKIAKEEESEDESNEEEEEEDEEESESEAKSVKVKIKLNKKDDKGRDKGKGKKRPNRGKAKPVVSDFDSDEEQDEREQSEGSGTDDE

As a reminder, the IC50 is the point on the concentration scale where inhibition reaches its midpoint. For the molecule `C[C@@]1(C#N)COCc2ccc(C(=O)NCc3cc4nc(-c5cccc(C(F)F)c5)ccc4cn3)cc21` [Compound 98], at BRM, the “BRM Max % Inhibition” value is listed as 97% and the IC50 was below 0.1 µM. Also, at BRG-1, the half-inhibitory concentration (IC50) was above 1 µM and the Emax is 81%.

As to `C[C@@]1(C#N)COCc2ccc(C(=O)NCc3cc4nc(-c5cn(C6COC6)nc5C5CC5)ccc4cn3)cc21` [Compound 186], on BRM, the “BRM Max % Inhibition” value was 97% and the IC50 is below 0.1 µM. On BRG-1, the IC50 was 0.5 to 1 µM and the Emax is 66%.

With `C[C@@]1(C#N)COCc2ccc(C(=O)NCc3cc4nc(-c5ccnc(C6COC6)n5)ccc4cn3)cc21` [Compound 158], on BRM, the “BRM Max % Inhibition” value is recorded as 96% and the IC50 lay in the range of 0.1 to 0.5 µM. Further, at BRG-1, the IC50 is 0.5 to 1 µM and the Emax came out at 75%.

For the molecule `Cn1cc(-c2nc3cc(CNC(=O)c4ccc5c(c4)[C@](C)(C#N)COC5)ncc3s2)cn1` [Compound 289], at BRM, the “BRM Max % Inhibition” value came to 90% and the IC50 lay in the range of 0.1 to 0.5 µM. On BRG-1, the IC50 is above 1 µM and the Emax amounted to 41%.

As for `C[C@@]1(F)COCc2ccc(C(=O)NCc3cc4nc(-c5ccnc(C6CC6)n5)sc4cn3)cc21` [Compound 199], on BRM, the “BRM Max % Inhibition” value was 85% and the IC50 was 0.1 to 0.5 µM. Further, on BRG-1, the IC50 was above 1 µM and the Emax turned out to be 14%.

For `CN1CC(c2cccc(-c3ccc4cnc(CNC(=O)c5ccc6c(c5)[C@](C)(C#N)COC6)cc4n3)c2)C1` [Compound 421], at BRM, the “BRM Max % Inhibition” value is reported as 84% and the IC50 lay within 0.1 to 0.5 µM. For the same molecule, on BRG-1, the IC50 was above 1 µM and the Emax was determined as 37%.

Take `C[C@@]1(F)COCc2ncc(C(=O)NCc3cc4nc(-c5cncc(N6CCC6)n5)ccc4cn3)cc21` [Compound 395]: on BRM, the “BRM Max % Inhibition” value is listed as 92% and the half-inhibitory concentration (IC50) fell in the range of 0.1 to 0.5 µM. Besides, on BRG-1, the IC50 was in the range of 0.5 to 1 µM and the Emax stood at 62%.

For the molecule `C[C@@]1(C#N)COCc2ccc(C(=O)NCc3cc4nc(-n5cc(F)c(N6CCC6)n5)ccc4cn3)cc21` [Compound 425], at BRM, the “BRM Max % Inhibition” value was 98% and the IC50 is below 0.1 µM. Further, on BRG-1, the IC50 was 0.1 to 0.5 µM and the Emax worked out at 93%.

As to `C[C@@]1(F)COCc2ccc(C(=O)NCc3cc4cc(-c5ccnn(C6CC6)c5=O)ccc4cn3)cc21` [Compound 257], on BRM, the “BRM Max % Inhibition” value was found to be 92% and the IC50 was 0.1 to 0.5 µM. At BRG-1, the IC50 lay in the range of 0.5 to 1 µM and the Emax is 65%.

On to `COc1ncccc1-c1ccc2nnc(CNC(=O)c3ccc4c(c3)[C@](C)(C#N)COC4)cc2c1` [Compound 357], for which, on BRM, the “BRM Max % Inhibition” value came to 97% and the 50% inhibitory concentration (IC50) was below 0.1 µM. Also, on BRG-1, the 50% inhibitory concentration (IC50) was in the range of 0.1 to 0.5 µM and the Emax was found to be 87%.

Take `COCCNC(=O)c1cccc(-c2ccc3cnc(CNC(=O)c4ccc5c(c4)[C@](C)(C#N)COC5)cc3n2)c1` [Compound 468]: on BRM, the “BRM Max % Inhibition” value came out at 100% and the IC50 was below 0.1 µM. For the same molecule, at BRG-1, the IC50 is 0.5 to 1 µM and the Emax was determined as 80%.

As for `CCc1cc2c(-c3ccc4cnc(CNC(=O)c5ccc6c(c5)[C@](C)(C#N)COC6)cc4n3)cccc2n1C` [Compound 134], on BRM, the “BRM Max % Inhibition” value was determined as 101% and the 50% inhibitory concentration (IC50) is below 0.1 µM. At BRG-1, the IC50 is below 0.1 µM and the Emax was 97%.

`COc1nn(C)cc1-c1ccc2cnc(CNC(=O)c3cc(F)c4c(c3)[C@](C)(F)COC4)cc2n1` [Compound 333]: on BRM, the “BRM Max % Inhibition” value is recorded as 100% and the IC50 was below 0.1 µM. Also, at BRG-1, the half-inhibitory concentration (IC50) fell in the range of 0.5 to 1 µM and the Emax was 79%.

For the molecule `C[C@H](NC(=O)c1ccc2c(c1)[C@](C)(C#N)COC2)c1cc2nc(-c3ccccc3)ccc2cn1` [Compound 87], at BRM, the “BRM Max % Inhibition” value stood at 88% and the IC50 was 0.5 to 1 µM. On BRG-1, the IC50 was above 1 µM and the Emax was 87%.

Regarding `Cc1c(-c2ccc3cnc(CNC(=O)c4ccc5c(c4)[C@](C)(C#N)COC5)cc3n2)cnn1C1COC1` [Compound 187], at BRM, the “BRM Max % Inhibition” value came to 88% and the concentration for half-maximal inhibition (IC50) lay within 0.1 to 0.5 µM. In addition, at BRG-1, the IC50 is above 1 µM and the Emax worked out at 42%.

With `C[C@@]1(C#N)COCc2ccc(C(=O)NCc3cc(/C(F)=C/c4ccccc4)ccn3)cc21` [Compound 27], at BRM, the “BRM Max % Inhibition” value was 97% and the IC50 lay within 0.1 to 0.5 µM. On BRG-1, the IC50 is above 1 µM and the Emax was 62%.

Consider `C[C@@]1(C#N)COCc2ccc(C(=O)NCc3cc4nc(-c5ccnc(C6CC6)n5)ccc4cn3)cc21` [Compound 417], for which, on BRM, the “BRM Max % Inhibition” value is 97% and the IC50 is below 0.1 µM. At BRG-1, the half-inhibitory concentration (IC50) was 0.1 to 0.5 µM and the Emax was determined as 91%.

As to `C[C@@]1(C#N)COCc2ccc(C(=O)NCc3cc(/C(F)=C(\F)c4ccccc4)ccn3)cc21` [Compound 9], at BRM, the “BRM Max % Inhibition” value turned out to be 95% and the IC50 was 0.1 to 0.5 µM. For the same molecule, on BRG-1, the IC50 is above 1 µM and the Emax came out at 56%.

On to `COC[C@H](NC(=O)c1ccc2c(c1)[C@](C)(C#N)COC2)c1cc(/C=C/c2ccccc2)ccn1` [Compound 41], for which, on BRM, the “BRM Max % Inhibition” value was 85% and the IC50 lay within 0.5 to 1 µM. Also, on BRG-1, the IC50 was above 1 µM and the Emax was found to be 55%.

As for `C[C@@]1(C#N)COCc2ccc(C(=O)NCc3cc(N4CCC5(C4)CN(c4ccccc4)C5)ccn3)cc21` [Compound 11], at BRM, the “BRM Max % Inhibition” value turned out to be 82% and the half-maximal inhibitory concentration (IC50) is above 1 µM. For the same molecule, at BRG-1, the IC50 is above 1 µM and the Emax was 26%.

With `C[C@@]1(C#N)COCc2ccc(C(=O)NCc3cc4c(cn3)CCN(c3ccnc(C5CC5)n3)C4)cc21` [Compound 327], on BRM, the “BRM Max % Inhibition” value is on record as 89% and the half-inhibitory concentration (IC50) was in the range of 0.1 to 0.5 µM. At BRG-1, the IC50 is above 1 µM and the Emax is 48%.

Regarding `C[C@@]1(C#N)COCc2ccc(C(=O)NCc3cc4nc(-n5cccn5)ccc4cn3)cc21` [Compound 473], at BRM, the “BRM Max % Inhibition” value turned out to be 96% and the IC50 lay within 0.1 to 0.5 µM. On BRG-1, the half-maximal inhibitory concentration (IC50) is above 1 µM and the Emax amounted to 72%.

Take `C[C@@]1(C#N)COCc2ccc(C(=O)NCc3cc4nc(-c5cccc6c5ccn6CC(F)F)ccc4cn3)cc21` [Compound 147]: on BRM, the “BRM Max % Inhibition” value was 101% and the half-maximal inhibitory concentration (IC50) is below 0.1 µM. On BRG-1, the IC50 is 0.1 to 0.5 µM and the Emax is 90%.

With `C[C@@]1(F)COCc2ccc(C(=O)NCc3cc4nc(-c5ccnc(N6CCC6)n5)ccc4cn3)cc21` [Compound 429], at BRM, the “BRM Max % Inhibition” value was 99% and the 50% inhibitory concentration (IC50) was below 0.1 µM. On BRG-1, the IC50 lay within 0.1 to 0.5 µM and the Emax was 93%.

As for `C[C@@]1(C#N)COCc2ccc(C(=O)NCc3cc(N4CC(c5ccccc5)C4)cnn3)cc21` [Compound 46], at BRM, the “BRM Max % Inhibition” value is 78% and the IC50 is above 1 µM. In addition, on BRG-1, the 50% inhibitory concentration (IC50) was above 1 µM and the Emax stood at 29%.

Take `C[C@@]1(C#N)COCc2ccc(C(=O)NCc3ncc4ccc(-c5ccccc5)nc4c3F)cc21` [Compound 167]: at BRM, the “BRM Max % Inhibition” value is recorded as 93% and the IC50 lay in the range of 0.1 to 0.5 µM. Also, on BRG-1, the IC50 lay within 0.5 to 1 µM and the Emax was found to be 69%.

As to `COCCN1CCC(c2cccc(-c3ccc4cnc(CNC(=O)c5ccc6c(c5)[C@](C)(C#N)COC6)cc4n3)n2)CC1` [Compound 128], on BRM, the “BRM Max % Inhibition” value worked out at 82% and the 50% inhibitory concentration (IC50) is 0.1 to 0.5 µM. On BRG-1, the IC50 is above 1 µM and the Emax came out at 39%.

Regarding `C[C@@]1(C#N)COCc2ccc(C(=O)NCc3cc4nc(-c5ccnc(N6C[C@@H]7C[C@H]6CO7)n5)ccc4cn3)cc21` [Compound 340], on BRM, the “BRM Max % Inhibition” value is recorded as 99% and the IC50 is below 0.1 µM. Further, at BRG-1, the IC50 fell in the range of 0.1 to 0.5 µM and the Emax was 91%.

Turning to `COC1CN(c2cncc(-c3ccc4cnc(CNC(=O)c5ccc6c(c5)[C@](C)(C#N)COC6)cc4n3)n2)C1` [Compound 409], at BRM, the “BRM Max % Inhibition” value stood at 96% and the IC50 was below 0.1 µM. For the same molecule, at BRG-1, the IC50 was 0.1 to 0.5 µM and the Emax turned out to be 95%.

As for `COc1ccc([C@H]2C[C@@H](c3ccnc(CNC(=O)c4ccc5c(c4)[C@](C)(C#N)COC5)c3)C2)cc1` [Compound 70], at BRM, the “BRM Max % Inhibition” value was found to be 94% and the 50% inhibitory concentration (IC50) fell in the range of 0.1 to 0.5 µM. At BRG-1, the IC50 was 0.5 to 1 µM and the Emax amounted to 55%.

With `C[C@@]1(C#N)COCc2ccc(C(=O)NCc3cc4nc(-c5cncc(N6CCC6)c5)ccc4cn3)cc21` [Compound 441], at BRM, the “BRM Max % Inhibition” value is 97% and the IC50 fell in the range of 0.1 to 0.5 µM. For the same molecule, at BRG-1, the IC50 lay in the range of 0.5 to 1 µM and the Emax came out at 80%.

In the case of `O=C(NCc1cc2nc(-c3cncc(N4CCC4)n3)ccc2cn1)c1cc(F)c2c(c1)[C@@](F)(C(F)F)COC2` [Compound 352], at BRM, the “BRM Max % Inhibition” value was determined as 99% and the IC50 was below 0.1 µM. On BRG-1, the IC50 lay within 0.1 to 0.5 µM and the Emax was found to be 89%.

As for `Cc1cncc(-c2ccc3cnc(CNC(=O)c4ccc5c(c4)[C@](C)(C#N)COC5)cc3n2)n1` [Compound 408], at BRM, the “BRM Max % Inhibition” value is 91% and the IC50 fell in the range of 0.1 to 0.5 µM. On BRG-1, the IC50 was in the range of 0.5 to 1 µM and the Emax was determined as 65%.

Turning to `C[C@@]1(C#N)COCc2ccc(C(=O)NCc3cc(C#Cc4cccc(C(F)F)c4)ccn3)cc21` [Compound 17], at BRM, the “BRM Max % Inhibition” value was found to be 94% and the IC50 was 0.1 to 0.5 µM. Besides, on BRG-1, the IC50 is above 1 µM and the Emax was 58%.

For the molecule `C[C@@]1(C#N)COCc2ccc(C(=O)NCc3cc4nc(-c5cncc(N6CC(F)(F)C6)n5)ccc4cn3)cc21` [Compound 404], on BRM, the “BRM Max % Inhibition” value was 93% and the IC50 is 0.1 to 0.5 µM. At BRG-1, the IC50 lay within 0.1 to 0.5 µM and the Emax amounted to 78%.
